Laboratory results taken from PMC5896373 (Molecular Pharmacology, 2018).
Numbering of substitutions follows the chain as printed. Where “and” joins values, the source holds several entries; their conditions need not be identical. Equal values may be shown once.

Experiments:
[1] = target: T1, P2X7R point mutant A91C (Homo sapiens, UniProt Q99572, A91C/I21V/M24R/N16P/N25R/Q22R/R20V/S23N/T19I/Y26L); test: cell-based
T1 construct: expressed in transfected cells; host or cells: Xenopus laevis oocytes (cRNA injection)
Protocol: (§1) Injected oocytes were stored at 16°C in ND96 buffer [in millimolar concentrations, NaCl 96, KCl 2, CaCl2 1.8, MgCl2 1, sodium pyruvate 5, and HEPES 5 (pH 7.6) supplemented with 50 μg/ml gentamycin and 50 μg/ml tetracycline]. Three to seven days postinjection two-electrode voltage clamp recordings were made from oocytes bathed in divalent-free ND96 buffer (in millimolar concentrations, NaCl 96, KCl 2, sodium pyruvate 5, HEPES 5, and 0.1 flufenamic acid, pH 7.6). Oocytes were voltage clamped at a holding potential of −60 mV with a GeneClamp500B amplifier (Molecular Devices).
(§2) Inhibition by the antagonists was expressed as the percentage of the peak current amplitude of an EC90 concentration of ATP recorded before the application of antagonist (ATP gave reproducible responses to ATP in the absence of antagonist). Inhibition curves were fitted with the Hill equation (variable slope) using GraphPad Prism 6 (GraphPad Software, San Diego, CA). […] Individual concentration-response curves were generated for individual experiments, and statistical analysis was carried out on the data generated. […] Data are shown as mean ± S.E.M. In all cases n ≥ 3 for all data points.

[2] = target: T2, P2X7-2Nβ receptor (Homo sapiens, UniProt Q99572, I21V/M24R/N16P/N25R/Q22R/R20V/S23N/T19I/Y26L); test: Two-electrode voltage clamp of ATP-evoked currents in Xenopus oocytes; assay type: cell-based; conditions: inhibition of EC90 ATP response
T2 construct: expressed in transfected cells; host or cells: Xenopus laevis oocytes (cRNA injection)
Protocol: (§3) The production of the correct mutations and absence of coding errors was determined by DNA sequencing (Automated ABI Sequencing Service, University of Leicester, UK). cRNA was generated for the mutants and 50 nl (50 ng) was injected into manually defoliculated stage V Xenopus laevis oocytes using an Inject+Matic microinjector (J.A. Gabay, Inject+Matic, Geneva, Switzerland). Injected oocytes were stored at 16°C in ND96 buffer [in millimolar concentrations, NaCl 96, KCl 2, CaCl2 1.8, MgCl2 1, sodium pyruvate 5, and HEPES 5 (pH 7.6) supplemented with 50 μg/ml gentamycin and 50 μg/ml tetracycline]. Three to seven days postinjection two-electrode voltage clamp recordings were made from oocytes bathed in divalent-free ND96 buffer (in millimolar concentrations, NaCl 96, KCl 2, sodium pyruvate 5, HEPES 5, and 0.1 flufenamic acid, pH 7.6). Oocytes were voltage clamped at a holding potential of −60 mV with a GeneClamp500B amplifier (Molecular Devices).
as §2

[3] = target: T3, P2X7R point mutant H85P (Homo sapiens, UniProt Q99572, H85P/I21V/M24R/N16P/N25R/Q22R/R20V/S23N/T19I/Y26L); test: as above; assay type: cell-based; conditions: EC90 ATP, mean ± S.E.M.
T3 construct: expressed in transfected cells; host or cells: Xenopus laevis oocytes (cRNA injection)
Protocol: (§4) Additional point mutants were made using the QuikChange mutagenesis kit (Stratagene California, La Jolla, CA). The production of the correct mutations and absence of coding errors was determined by DNA sequencing (Automated ABI Sequencing Service, University of Leicester, UK). cRNA was generated for the mutants and 50 nl (50 ng) was injected into manually defoliculated stage V Xenopus laevis oocytes using an Inject+Matic microinjector (J.A. Gabay, Inject+Matic, Geneva, Switzerland). Injected oocytes were stored at 16°C in ND96 buffer [in millimolar concentrations, NaCl 96, KCl 2, CaCl2 1.8, MgCl2 1, sodium pyruvate 5, and HEPES 5 (pH 7.6) supplemented with 50 μg/ml gentamycin and 50 μg/ml tetracycline]. Three to seven days postinjection two-electrode voltage clamp recordings were made from oocytes bathed in divalent-free ND96 buffer (in millimolar concentrations, NaCl 96, KCl 2, sodium pyruvate 5, HEPES 5, and 0.1 flufenamic acid, pH 7.6). Oocytes were voltage clamped at a holding potential of −60 mV with a GeneClamp500B amplifier (Molecular Devices).
(§5) Inhibition by the antagonists was expressed as the percentage of the peak current amplitude of an EC90 concentration of ATP recorded before the application of antagonist (ATP gave reproducible responses to ATP in the absence of antagonist). […]

[4] = target: T4, chimeric P2X7/1 receptor 295–310 (Homo sapiens, UniProt Q99572, E305N/I21V/I310F/K297R/K300V/K306Y/M24R/N16P/N25R/N303G/Q22R/R20V/S23N/T19I/T308H/V304T/Y26L/Y295F/Y298H/Y299F); test: cell-based; assay type: cell-based
T4 construct: expressed in transfected cells; host or cells: Xenopus laevis oocytes (cRNA injection)
Protocol: as §4, §2

[5] = target: T5, P2X7R point mutant T94V (Homo sapiens, UniProt Q99572, I21V/M24R/N16P/N25R/Q22R/R20V/S23N/T19I/T94V/Y26L); test: Two-electrode voltage clamp of ATP-evoked currents in Xenopus oocytes; assay type: cell-based; conditions: EC90 ATP, mean ± S.E.M.
T5 construct: expressed in transfected cells; host or cells: Xenopus laevis oocytes (cRNA injection)
Protocol: as §4, §5

[6] = target: T6, P2X7R point mutant P96A (Homo sapiens, UniProt Q99572, I21V/M24R/N16P/N25R/P96A/Q22R/R20V/S23N/T19I/Y26L); test: as above; assay type: cell-based; conditions: EC90 ATP, mean ± S.E.M.
T6 construct: expressed in transfected cells; host or cells: Xenopus laevis oocytes (cRNA injection)
Protocol: as §1, §2

[7] = target: T7, chimeric P2X7R with left flipper 280–284 of P2X4 (Homo sapiens, UniProt Q99572, D280T/I21V/K281R/M24R/N16P/N25R/N284E/Q22R/R20V/S23N/T19I/T282D/T283V/Y26L); test: cell-based
T7 sequence (Q99572 1-595 N16P/T19I/R20V/I21V/Q22R/S23N/M24R/N25R/Y26L/D280T/K281R/T282D/T283V/N284E): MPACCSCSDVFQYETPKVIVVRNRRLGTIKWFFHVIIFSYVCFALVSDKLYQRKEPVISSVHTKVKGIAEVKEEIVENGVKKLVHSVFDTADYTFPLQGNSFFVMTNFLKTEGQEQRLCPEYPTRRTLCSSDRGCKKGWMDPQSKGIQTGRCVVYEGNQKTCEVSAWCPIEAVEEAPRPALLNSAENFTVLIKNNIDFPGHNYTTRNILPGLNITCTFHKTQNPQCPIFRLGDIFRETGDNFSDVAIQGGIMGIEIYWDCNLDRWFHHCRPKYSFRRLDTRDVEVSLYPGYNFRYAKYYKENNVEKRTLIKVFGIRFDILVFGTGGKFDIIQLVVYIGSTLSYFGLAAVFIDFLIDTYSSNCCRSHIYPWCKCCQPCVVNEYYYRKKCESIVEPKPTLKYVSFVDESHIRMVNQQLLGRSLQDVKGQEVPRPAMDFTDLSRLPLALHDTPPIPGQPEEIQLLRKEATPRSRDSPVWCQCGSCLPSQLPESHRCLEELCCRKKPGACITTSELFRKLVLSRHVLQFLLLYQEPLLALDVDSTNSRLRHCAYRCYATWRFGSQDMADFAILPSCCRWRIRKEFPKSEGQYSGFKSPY
Protocol: as §3, §2

[8] = target: T8, P2X7R point mutant M105A (Homo sapiens, UniProt Q99572, I21V/M105A/M24R/N16P/N25R/Q22R/R20V/S23N/T19I/Y26L); test: Two-electrode voltage clamp of ATP-evoked currents in Xenopus oocytes; assay type: cell-based; conditions: EC90 ATP, mean ± S.E.M.
T8 construct: expressed in transfected cells; host or cells: Xenopus laevis oocytes (cRNA injection)
Protocol: as §1, §2

[9] = target: T9, chimeric P2X7/1 receptor 89–94 (Homo sapiens, UniProt Q99572, I21V/M24R/N16P/N25R/Q22R/R20V/S23N/T19I/T90V/T94V/Y26L); test: as above; assay type: cell-based; conditions: for IC50: inhibition of EC90 ATP response
T9 construct: expressed in transfected cells; host or cells: Xenopus laevis oocytes (cRNA injection)
T9 sequence (Q99572 1-595 N16P/T19I/R20V/I21V/Q22R/S23N/M24R/N25R/Y26L/T90V/T94V): T7 sequence (Q99572 1-595 N16P/T19I/R20V/I21V/Q22R/S23N/M24R/N25R/Y26L/D280T/K281R/T282D/T283V/N284E) with T90V, T94V, T280D, R281K, D282T, V283T, E284N
Protocol: as §3, §2

[10] = target: T10, P2X7R point mutant Y298A (Homo sapiens, UniProt Q99572, I21V/M24R/N16P/N25R/Q22R/R20V/S23N/T19I/Y26L/Y298A); test: cell-based
T10 construct: expressed in transfected cells; host or cells: Xenopus laevis oocytes (cRNA injection)
Protocol: as §1
(§6) Inhibition by the antagonists was expressed as the percentage of the peak current amplitude of an EC90 concentration of ATP recorded before the application of antagonist (ATP gave reproducible responses to ATP in the absence of antagonist). Inhibition curves were fitted with the Hill equation (variable slope) using GraphPad Prism 6 (GraphPad Software, San Diego, CA). […] Individual concentration-response curves were generated for individual experiments, and statistical analysis was carried out on the data generated. When shown in figures, the inhibition curves are fitted to the mean normalized data. […] Data are shown as mean ± S.E.M. In all cases n ≥ 3 for all data points.

[11] = target: T11, P2X7R point mutant A166G (Homo sapiens, UniProt Q99572, A166G/I21V/M24R/N16P/N25R/Q22R/R20V/S23N/T19I/Y26L); test: Two-electrode voltage clamp of ATP-evoked currents in Xenopus oocytes; assay type: cell-based; conditions: EC90 ATP, mean ± S.E.M.
T11 construct: expressed in transfected cells; host or cells: Xenopus laevis oocytes (cRNA injection)
T11 sequence (Q99572 whole entry N16P/T19I/R20V/I21V/Q22R/S23N/M24R/N25R/Y26L/A166G): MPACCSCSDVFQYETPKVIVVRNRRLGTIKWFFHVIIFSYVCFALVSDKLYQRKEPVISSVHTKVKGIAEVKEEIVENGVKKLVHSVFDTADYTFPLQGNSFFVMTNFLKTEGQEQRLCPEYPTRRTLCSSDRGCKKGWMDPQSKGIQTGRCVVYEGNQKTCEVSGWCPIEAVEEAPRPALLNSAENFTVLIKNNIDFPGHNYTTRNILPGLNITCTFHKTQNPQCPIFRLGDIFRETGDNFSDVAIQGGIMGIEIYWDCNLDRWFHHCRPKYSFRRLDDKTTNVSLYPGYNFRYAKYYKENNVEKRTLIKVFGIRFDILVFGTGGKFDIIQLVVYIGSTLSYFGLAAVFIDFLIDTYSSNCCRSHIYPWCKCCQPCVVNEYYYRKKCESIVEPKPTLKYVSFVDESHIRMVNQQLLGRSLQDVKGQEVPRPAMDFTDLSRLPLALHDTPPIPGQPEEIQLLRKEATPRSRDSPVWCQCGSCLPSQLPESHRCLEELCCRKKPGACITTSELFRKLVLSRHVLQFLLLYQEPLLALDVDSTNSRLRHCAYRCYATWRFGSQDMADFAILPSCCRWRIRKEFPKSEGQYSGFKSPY
Protocol: as §1, §6

T2 sequence (Q99572 whole entry N16P/T19I/R20V/I21V/Q22R/S23N/M24R/N25R/Y26L): as the sequence (Q99572 whole entry N16P/T19I/R20V/I21V/Q22R/S23N/M24R/N25R/Y26L/A166G) above, with G166A counted along it
T4 sequence (Q99572 1-595 with the stated changes): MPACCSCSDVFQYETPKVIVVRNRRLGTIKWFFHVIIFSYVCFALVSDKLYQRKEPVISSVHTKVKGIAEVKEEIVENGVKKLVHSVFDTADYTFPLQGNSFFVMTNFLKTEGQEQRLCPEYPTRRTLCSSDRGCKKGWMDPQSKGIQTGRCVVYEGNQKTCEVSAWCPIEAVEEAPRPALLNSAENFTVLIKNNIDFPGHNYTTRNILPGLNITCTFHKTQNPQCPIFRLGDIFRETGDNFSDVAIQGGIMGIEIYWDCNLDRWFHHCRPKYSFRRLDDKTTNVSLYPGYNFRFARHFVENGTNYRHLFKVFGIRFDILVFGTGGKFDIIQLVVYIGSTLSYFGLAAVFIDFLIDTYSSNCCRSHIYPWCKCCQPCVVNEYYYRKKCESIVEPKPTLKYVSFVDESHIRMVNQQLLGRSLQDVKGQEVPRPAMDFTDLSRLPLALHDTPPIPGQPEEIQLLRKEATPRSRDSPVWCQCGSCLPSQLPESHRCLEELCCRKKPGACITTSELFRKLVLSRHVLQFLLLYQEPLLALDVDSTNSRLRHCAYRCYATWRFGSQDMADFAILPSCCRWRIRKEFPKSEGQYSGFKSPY
T6 sequence (Q99572 whole entry N16P/T19I/R20V/I21V/Q22R/S23N/M24R/N25R/Y26L/P96A): as the sequence (Q99572 whole entry N16P/T19I/R20V/I21V/Q22R/S23N/M24R/N25R/Y26L/A166G) above, with P96A, G166A counted along it
T5 sequence (Q99572 whole entry N16P/T19I/R20V/I21V/Q22R/S23N/M24R/N25R/Y26L/T94V): as the sequence (Q99572 whole entry N16P/T19I/R20V/I21V/Q22R/S23N/M24R/N25R/Y26L/A166G) above, with T94V, G166A counted along it
T10 sequence (Q99572 whole entry N16P/T19I/R20V/I21V/Q22R/S23N/M24R/N25R/Y26L/Y298A): as the sequence (Q99572 whole entry N16P/T19I/R20V/I21V/Q22R/S23N/M24R/N25R/Y26L/A166G) above, with G166A, Y298A counted along it
T8 sequence (Q99572 whole entry N16P/T19I/R20V/I21V/Q22R/S23N/M24R/N25R/Y26L/M105A): as the sequence (Q99572 whole entry N16P/T19I/R20V/I21V/Q22R/S23N/M24R/N25R/Y26L/A166G) above, with M105A, G166A counted along it
T3 sequence (Q99572 whole entry N16P/T19I/R20V/I21V/Q22R/S23N/M24R/N25R/Y26L/H85P): as the sequence (Q99572 whole entry N16P/T19I/R20V/I21V/Q22R/S23N/M24R/N25R/Y26L/A166G) above, with H85P, G166A counted along it
T1 sequence (Q99572 whole entry N16P/T19I/R20V/I21V/Q22R/S23N/M24R/N25R/Y26L/A91C): as the sequence (Q99572 whole entry N16P/T19I/R20V/I21V/Q22R/S23N/M24R/N25R/Y26L/A166G) above, with A91C, G166A counted along it

SMILES | IC50 [1] | IC50 [2] | IC50 [3] | IC50 [4] | IC50 [5] | IC50 [6] | IC50 [7] | IC50 [8] | fold decrease in antagonist sensitivity/affinity relative to P2X7-2Nβ ([9]; chimera 89–94) | IC50 ([9]; chimera 89–94) | IC50 [10] | IC50 [11] | inhibition at 10 µM ([9]; P2X7, read-out: inhibition of ATP responses)
COc1ccc(CC(=O)NC(N=C(NC#N)Nc2cccc3ncccc23)C(C)(C)C)cc1OC (stereo not drawn) [A740003, N-[1-[[(cyanoamino)(5-quinolinylamino)methylene]amino]-2,2-dimethylpropyl]-3,4-dimethoxybenzeneacetamide] | 2.51 µM | 79.4 nM | 398 nM | 0.501 µM | 398 nM | 0.316 µM | 0.794 µM | 12.6 µM | ~3 fold | 251 nM | 2 µM | 316 nM | –
Cl.Clc1cccc(-c2nnnn2Cc2cccnc2)c1Cl.O [A438079, 3-(5-(2,3-dichlorophenyl)-1H-tetrazol-1-yl)methyl pyridine hydrochloride hydrate] | 20 µM | 933 nM and 1000 nM | 1000 nM | 10 µM | > 100000 nM | 12.6 µM | 31.6 µM | 1.58 µM | – | > 100000 nM | 6.31 µM | 3980 nM | 15.7%
